The results in this text go back to US6548494B1, “Tricyclic inhibitors of poly(ADP-ribose) polymerases” (Agouron Pharmaceuticals, Inc., priority 1999, dated 2003).

The subject of one data set is A549 cells. Description: Cytotoxicity potentiation assay. It is filed as cell-based. Conditions: test compound 0.4 μM, ratio of IC50 of topotecan alone to IC50 of topotecan with test compound. As for the experimental part:
A549 cells (ATCC, Rockville, Md.) were seeded into 96-well cell culture plates (Falcon brand, Fisher Scientific, Pittsburgh, Pa.) 16 to 24 hours before experimental manipulation. Cells were then treated with a test compound (or a combination of test compounds where indicated) each at a concentration of 0.4 μM for either 3 days or 5 days. At the end of treatments, relative cell number was determined either by MTT assay or SRB assay. For the MTT assay, 0.2 μg/μl of MTT (3-(4,5-dimethylthiazol-2-yl)-2,5-diphenyltetrazolium bromide) (Sigma Chemical Co., St. Louis, Mo.) was added to each well of a plate, and the plate was incubated in a cell-culture incubator for 4 hours. Metabolized MTT in each well was solubilized in 150 μl of DMSO (Sigma Chemical Co.) with shaking and quantified with a Wallac 1420 Victor plate reader (EG&G Wallac, Gaithersburg, Md.) at 540 nm. For the SRB assay, cells were fixed with 10% trichloroacetic acid (Sigma Chemical Co) for an hour at 4° C. After extensively washing, fixed cells were stained for 30 minutes with 0.4% sulforhodamine B (SRB, Sigma Chemical Co.) in 1% acetic acid (Sigma Chemical Co). Unbound SRB was washed away with 1% acetic acid. Then the cultures were air-dried, and dye was solubilized with 10 mM unbuffered Tris base (Sigma Chemical Co) with shaking. The bound dye was measured photometrically with the Wallac Victor plate reader at 515 nm. The ratio of the OD (optical density) value of a compound-treated culture to the OD value of a mock-treated culture, expressed in percentage, was used to quantify the cytotoxicity of a compound. […] To quantify the potentiation of the cytotoxicity of topotecan or temozolomide by test compounds, a dimensionless parameter PF50 is used and is defined as the ratio of the IC50 of topotecan or temozolomide alone to the IC50 of topotecan or temozolomide in combination with a test compound. For the compounds of the invention, PF50 values were determined by testing with topotecan.

A further data set has as its target purified PARP protein (Homo sapiens, UniProt P09874). Description: PARP enzyme inhibition assay. It is filed as biochemical.
Setting [1] is: 20 nM purified PARP (5 nM for tight-binding inhibitors), 500 μM NAD+, 25° C., several values in one cell = repeat determinations, read-out: Inhibition Constant Ki.

Where “and” joins values, the source holds several entries; their conditions need not be identical. Equal values may be shown once. Read-outs that look alike come from different tables or passages of the source.

Chain of purified PARP protein (P09874 whole entry): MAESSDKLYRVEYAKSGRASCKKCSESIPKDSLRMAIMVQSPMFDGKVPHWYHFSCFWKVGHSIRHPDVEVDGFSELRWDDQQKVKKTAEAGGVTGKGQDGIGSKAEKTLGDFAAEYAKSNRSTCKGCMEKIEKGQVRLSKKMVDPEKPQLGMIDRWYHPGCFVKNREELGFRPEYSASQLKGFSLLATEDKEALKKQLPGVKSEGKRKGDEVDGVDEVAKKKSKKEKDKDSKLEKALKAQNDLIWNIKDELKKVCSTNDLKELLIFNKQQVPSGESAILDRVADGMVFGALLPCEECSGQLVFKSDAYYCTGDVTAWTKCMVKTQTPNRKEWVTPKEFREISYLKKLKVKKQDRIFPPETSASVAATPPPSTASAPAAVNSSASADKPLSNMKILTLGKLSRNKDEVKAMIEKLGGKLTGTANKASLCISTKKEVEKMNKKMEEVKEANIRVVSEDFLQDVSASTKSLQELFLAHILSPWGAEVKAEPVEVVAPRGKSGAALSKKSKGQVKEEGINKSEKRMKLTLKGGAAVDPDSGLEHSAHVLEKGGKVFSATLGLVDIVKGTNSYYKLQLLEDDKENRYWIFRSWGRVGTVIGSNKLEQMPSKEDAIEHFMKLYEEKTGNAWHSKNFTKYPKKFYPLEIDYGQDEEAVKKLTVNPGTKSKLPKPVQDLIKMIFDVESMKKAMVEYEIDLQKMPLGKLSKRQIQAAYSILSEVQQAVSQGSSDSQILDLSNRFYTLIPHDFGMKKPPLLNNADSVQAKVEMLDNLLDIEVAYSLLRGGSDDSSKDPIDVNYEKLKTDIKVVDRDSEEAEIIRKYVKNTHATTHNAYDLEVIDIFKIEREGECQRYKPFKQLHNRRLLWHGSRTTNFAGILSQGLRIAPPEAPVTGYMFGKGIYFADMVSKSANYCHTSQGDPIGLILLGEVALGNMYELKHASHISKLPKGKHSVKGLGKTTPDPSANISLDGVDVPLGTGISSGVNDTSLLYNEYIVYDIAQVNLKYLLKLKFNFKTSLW

Consider `O=C1NCCn2c(-c3ccccc3)nc3cccc1c32` [Example 1, 1-Phenyl-8,9-dihydro-7H-2,7,9a-triaza-benzo[cd]azulen-6-one], for which, in the data set with A549 cells, the “Cytotoxicity Potentiation PF50” value is given as 1.5.

With `O=C1NCCn2c(-c3cccc4ccccc34)nc3cccc1c32` [Example 9, 1-Naphthalen-1-yl-8,9-dihydro-7H-2,7,9a-triaza-benzo[cd]azulen-6-one], the “Cytotoxicity Potentiation PF50” value with A549 cells was determined as 1.4.

In the case of `O=C1NCCn2c(-c3ccc(F)cc3)cc3cccc1c32` [Example 37], the “Cytotoxicity Potentiation PF50” value in the data set on A549 cells came out at 1.8.

What is called melting point is the temperature of the solid-liquid transition. Usually Ki stands for the equilibrium dissociation constant of an inhibitor or competing ligand from its target. `O=C1NCCn2c(-c3ccc(OCCO)cc3)nc3cccc1c32` [Example 120, 1-[4-(2-Hydroxy-ethoxy)-phenyl]-8,9-dihydro-7H-2,7,9a-triaza-benzo[cd]azulen-6-one]: the melting point was 253 to 254 °C (dec.). Further, the Ki at purified PARP protein (setting [1]) amounted to 7.3 nM.

Turning to `O=C1NCCn2c(-c3ccc(CN4CC[S+]([O-])CC4)cc3)nc3cccc1c32` [Example 122, 1-[4-(Oxo-1λ^4-thiomorpholin-4-ylmethyl)-phenyl]-8,9-dihydro-7H-2,7,9a-triaza-benzo[cd]azulen-6-one], the melting point is 247 °C (dec.). The Ki on purified PARP protein (setting [1]) was 7 nM.

The molecule `O=C1NCCn2c(-c3ccc(OCCN4CCCC4)cc3)nc3cccc1c32` [Example 123, 1-[4-(2-Pyrrolidin-1-yl-ethoxy)-phenyl]-8,9-dihydro-7H-2,7,9a-triaza-benzo[cd]azulen-6-one] came in with a melting point of 172 to 175 °C. Moreover, the Ki at purified PARP protein (setting [1]) is 9 nM.

For the molecule `CN(C)CCOc1ccc(-c2nc3cccc4c3n2CCNC4=O)cc1` [Example 124, 1-[4-(2-Dimethylamino-ethoxy)-phenyl]-8,9-dihydro-7H-2,7,9a-triaza-benzo[cd]azulen-6-one], the melting point was in the range of 184 to 186 °C. Further, the Ki at purified PARP protein (setting [1]) worked out at 8 nM.

As for `O=C1NCCn2c(-c3ccc(CCOC4CCCCO4)cc3)nc3cccc1c32` (centres unmarked) [Example 125, 1-{4-[2-(Tetrahydro-pyran-2-yloxy)-ethyl]-phenyl}-8,9-dihydro-7H-2,7,9a-triaza-benzo[cd]azulen-6-one], the melting point lay in the range of 189 to 190 °C. Besides, the Ki on purified PARP protein (setting [1]) was determined as 11 nM.

The molecule `O=C1NCCn2c(-c3ccc(CCO)cc3)nc3cccc1c32` [Example 127, 1-[4-(2-Hydroxy-ethyl)-phenyl]-8,9-dihydro-7H-2,7,9a-triaza-benzo[cd]azulen-6-one] had a melting point of 263 to 265 °C. Besides, the Ki at purified PARP protein (setting [1]) was 3.5 nM and 3.6 nM.

For the molecule `Cn1nnc(-c2ccc(-c3nc4cccc5c4n3CCNC5=O)cc2)n1` [Example 133, 1-[4-(2-Methyl-2H-tetrazol-5-yl)-phenyl]-8,9-dihydro-7H-2,7,9a-triaza-benzo[cd]azulen-6-one], the melting point was 280 °C (dec.). The Ki on purified PARP protein (setting [1]) was 6.9 nM.

With `O=C1NCCn2c(-c3ccc(-c4ccncc4)cc3)nc3cccc1c32` [Example 135, 1-(4-Pyridin-4-yl-phenyl)-8,9-dihydro-7H-2,7,9a-triaza-benzo[cd]azulen-6-one], the melting point is 370 to 372 °C (dec.). Also, the Ki on purified PARP protein (setting [1]) worked out at 3.8 nM.

For `O=C1NCCn2c(-c3ccc(-c4nn[nH]n4)cc3)nc3cccc1c32` [Example 136, 1-[4-(2H-Tetrazol-5-yl)-phenyl]-8,9-dihydro-7H-2,7,9a-triaza-benzo[cd]azulen-6-one], the melting point was > 290 °C (dec.). For the same molecule, at purified PARP protein (setting [1]), the Ki amounted to 96 nM.

Consider `CSc1nc2cccc3c2n1CCNC3=O` [Example 138, 1-Methylsulfanyl-8,9-dihydro-7H-2,7,9a-triaza-benzo[cd]azulen-6-one], for which the melting point lay in the range of 223 to 225 °C. Also, the Ki at purified PARP protein (setting [1]) was found to be 11 nM.

As for `C[S+]([O-])c1nc2cccc3c2n1CCNC3=O` (centres unmarked) [Example 139, 1-Methanesulfinyl-8,9-dihydro-7H-2,7,9a-triaza-benzo[cd]azulen-6-one], the melting point was 241 to 242 °C (dec.). Moreover, on purified PARP protein (setting [1]), the Ki was found to be 12 nM.

Turning to `CS(=O)(=O)c1nc2cccc3c2n1CCNC3=O` [Example 140, 1-Methanesulfonyl-8,9-dihydro-7H-2,7,9a-triaza-benzo[cd]azulen-6-one], the melting point is > 190 °C (dec.). Moreover, the Ki on purified PARP protein (setting [1]) was 6.8 nM.

Molecule `CN1CCCC(c2ccc(-c3nc4cccc5c4n3CCNC5=O)cc2)C1` (centres unmarked) [Example 144, 1-[4-(Methyl-piperidin-3-yl)-phenyl]-8,9-dihydro-7H-2,7,9a-triaza-benzo[cd]azulen-6-one] had a melting point of 240 to 242 °C. For the same molecule, the Ki at purified PARP protein (setting [1]) is 7.4 nM.

On to `O=C1NCCn2c(NCc3ccccc3)nc3cccc1c32` [Example 145, 1-Benzylamino-8,9-dihydro-7H-2,7,9a-triaza-benzo[cd]azulen-6-one], for which the melting point was 186 °C (dec.). Moreover, the Ki at purified PARP protein (setting [1]) is 20 nM.

Turning to `O=C1NCCn2c(-c3ccc(-c4c[nH]cn4)cc3)nc3cccc1c32` [Example 147, 1-[4-(1H-Imidazol-4-yl)-phenyl]-8,9-dihydro-7H-2,7,9a-triaza-benzo[cd]azulen-6-one], the melting point was > 198 °C (dec.). The Ki at purified PARP protein (setting [1]) was found to be 4 nM.

With `CC(C)N1CCCCC1c1ccc(-c2nc3cccc4c3n2CCNC4=O)cc1` (centres unmarked) [Example 151], the melting point is > 260 °C (dec.). The inhibition constant (Ki) at purified PARP protein (setting [1]) is 6.9 nM.

`O=C1NCCn2c(-c3ccc(-c4ncc[nH]4)cc3)nc3cccc1c32` [Example 152, 1-[4-(1H-Imidazol-2-yl)-phenyl]-8,9-dihydro-7H-2,7,9a-triaza-benzo[cd]azulen-6-one] came in with a melting point above 325 °C. Also, the Ki on purified PARP protein (setting [1]) stood at 3.2 nM.

As to `NC(=S)c1c(-c2ccc(F)cc2)n2c3c(cccc13)C(=O)NCC2` [Example 153, 6-(4-Fluoro-phenyl)-1-oxo-1,2,3,4-tetrahydro-[1,4]diazepino[6,7,1-hi]indole-7-carbothioic Acid Amide], the melting point was in the range of 238 to 240 °C. Moreover, the Ki on purified PARP protein (setting [1]) was determined as 219 nM.

On to `N/C(=N\O)c1c(-c2ccc(F)cc2)n2c3c(cccc13)C(=O)NCC2` [Example 155, 6-(4-Fluoro-phenyl)-N-hydroxy-1-oxo-1,2,3,4-tetrahydro-[1,4]diazepino[6,7,1-hi]indole-7-carboxmidine], for which the melting point was in the range of 257 to 259 °C. Moreover, on purified PARP protein (setting [1]), the Ki turned out to be 87 nM.

In the case of `CC(O)c1c(-c2ccc(F)cc2)n2c3c(cccc13)C(=O)NCC2` (centres unmarked) [Example 157, 6-(4-Fluoro-phenyl)-7-(1-hydroxy-ethyl)-3,4-dihydro-2H-[1,4]diazepino[6,7,1-hi]indol-1-one], the melting point lay within 220 to 222 °C. At purified PARP protein (setting [1]), the Ki was 540 nM.

In turn, `O=C1NCCn2c(-c3ccc(F)cc3)c(-c3ccn[nH]3)c3cccc1c32` [Example 160, 6-(4-Fluoro-phenyl)-7-(2H-pyrazol-3-yl)-3,4-dihydro-2H-[1,4]diazepino[6,7,1-hi]indol-1-one] had a melting point of 173 to 175 °C. For the same molecule, at purified PARP protein (Inhibition Constant Ki (nM)), affinity was put at a Ki of 249 nM.

In turn, `COC(=O)CCCc1cc2cccc3c2n1CCNC3=O` [Example 161] yielded a melting point of 175 to 176 °C. In addition, the Ki on purified PARP protein (setting [1]) came out at 116 nM.

The molecule `CC(O)c1cn2c3c(cccc13)C(=O)NCC2` (centres unmarked) [Example 163, 7-(1-Hydroxy-ethyl)-3,4-dihydro-2H-[1,4]diazepino[6,7,1-hi]indol-1-one] gave a melting point of 295 to 297 °C. The Ki on purified PARP protein (setting [1]) was found to be 692 nM.

Molecule `CC(=O)c1cn2c3c(cccc13)C(=O)NCC2` [Example 164, 7-Acetyl-3,4-dihydro-2H-[1,4]diazepino[6,7,1-hi]indol-1-one] showed a melting point of 285 to 287 °C. For the same molecule, the Ki at purified PARP protein (setting [1]) turned out to be 606 nM.

On to `O=C1NCCn2cc(C(O)c3ccccc3)c3cccc1c32` (centres unmarked) [Example 166, 7-(1-Hydroxy-1-phenyl-methyl)-3,4-dihydro-2H-[1,4]diazepino[6,7,1-hi]indol-1-one], for which the melting point lay within 178 to 180 °C. Besides, the Ki at purified PARP protein (Inhibition Constant Ki (nM)) turned out to be 380 nM.

As for `O=C(c1ccccc1)c1cn2c3c(cccc13)C(=O)NCC2` [Example 167, 7-(1-Benzoyl)-3,4-dihydro-2H-[1,4]diazepino[6,7,1-hi]indol-1-one], the melting point was 229 to 230 °C. For the same molecule, on purified PARP protein (setting [1]), the Ki is 337 nM.

`O=C1NCCn2cc(/C(=N/O)c3ccccc3)c3cccc1c32` [Example 168, 7-(1-Hydroxyimino-1-phenyl-methyl)-3,4-dihydro-2H-[1,4]diazepino[6,7,1-hi]indol-1-one]: the melting point was 263 to 265 °C. In addition, the affinity on purified PARP protein (Inhibition Constant Ki (nM)), expressed as Ki, was 38 nM.

With `C[C@H]1Cn2c(-c3ccc(Cl)cc3)nc3cccc(c32)C(=O)N1` [Example 235, (S)-1-(4-Chloro-phenyl)-8-methyl-8,9-dihydro-7H-2,7,9a-triaza-benzo[cd]azulen-6-one], the melting point lay within 244 to 246 °C. In addition, the Ki at purified PARP protein (setting [1]) was 5.4 nM.
